Test results from US10336792B2, “Antimicrobial peptide dendrimers” (priority 2014, dated 2019).
Converted amounts (≈) assume the structure as drawn. Positions of bridges follow the written chain, without caps; N, C: chain ends. Non-standard residues stand in square brackets, D forms with d. Residues, ends and D or L forms follow the SMILES beside them. Groups on a side chain read outwards from the residue. Chains are numbered I, II in the order given. Dab = NCC[C@H](N)C(=O)O; Dap = NC[C@H](N)C(=O)O

Test system: Pseudomonas aeruginosa (strain PA01)
Experiment: microbe, parasite or virus in culture
Assay type: cell-based
Conditions: strain
Protocol: Antimicrobial activity was assayed against Bacillus subtilis (strain BR151), Escherichia coli (strain DH5α) and Pseudomonas aeruginosa (strain PA01). Microdilution broth method was used to determine the minimal inhibitory concentration (MIC). A colony of bacteria was grown in LB-medium overnight at 37° C. The concentration was quantified by measuring absorbance at 600 nm and diluted to OD600=0.1 (1×10^8 CFU/mL). The samples were prepared as stock solutions of 1 mg mL^−1 in H2O and diluted serially by ⅔ in nutrient LB in a 96-well microtiterplate (Cornstar, polypropylene, untreated). The sample solutions (50 μL) were mixed with the diluted bacterial suspension with an OD600 nm of 0.001 (50 μL). […] The plates were incubated at 37° C. until satisfactory growth (18-24 h). For each test, two columns of the plate were kept for sterility control (SC, broth only) and growth control (GC, broth with bacterial inoculums, no antibiotics). 10 μL of a solution of MTT (0.1% in H2O) was added to each well. The minimal inhibitory concentration (MIC) was defined as the lowest concentration of the antimicrobial substance (peptide dendrimer) that inhibited visible growth of the tested bacteria (yellow) with the unaided eye. For microbiological study the linear peptide LysTyrLysLysAlaLeuLysLysLeuAlaLysLeuLeu (SEQ ID No. 1) was used as reference.
All peptides were tested for their activity against P. aeruginosa PAO1 in a broth dilution assay (Wiegand, I. et al., 2008, Nat. Protoc., 3, 163-75; Clinical and Laboratory Standards Institute document M7-A7 7th Edition) to determine the MIC (minimal inhibitory concentration) values. The stock solutions of the peptide dendrimers were diluted serially by ⅔ in nutrient LB in 96-well microtiter plates. Bacteria were grown in nutrient LB overnight at 37° C. After dilution the bacteria were added to the peptides and incubated overnight (18-24 h) at 37° C. […] The position of the amino acids between the branching units seems to be optimal if the hydrophobic amino acid is the first counting from C-terminus and the charged one is on the second position. Introducing Ala as additional hydrophobic amino acid reduces activity (MSt-120). […] Also assembling charged or hydrophobic sections between the branching units leads to loss of activity whereas altering L-amino acids to D-amino acids maintains activity leading to the hypothesis that the mechanism of action should not be receptor mediated.

MIC P. aeruginosa PAO1 [µg/mL]	Structure (SMILES)
2 (≈ 0.409 µM)	CC(C)C[C@H](NC(=O)[C@H](CCCCN)NC(=O)[C@H](CCCCN)NC(=O)[C@H](CCCCNC(=O)[C@H](CC(C)C)NC(=O)[C@H](CCCCN)NC(=O)[C@H](CC(C)C)NC(=O)[C@H](CCCCNC(=O)[C@H](CC(C)C)NC(=O)[C@H](CCCCN)NC(=O)[C@H](CCCCNC(=O)[C@H](CC(C)C)NC(=O)[C@@H](N)CCCCN)NC(=O)[C@H](CC(C)C)NC(=O)[C@@H](N)CCCCN)NC(=O)[C@H](CC(C)C)NC(=O)[C@H](CCCCN)NC(=O)[C@H](CCCCNC(=O)[C@H](CC(C)C)NC(=O)[C@@H](N)CCCCN)NC(=O)[C@H](CC(C)C)NC(=O)[C@@H](N)CCCCN)NC(=O)[C@H](CC(C)C)NC(=O)[C@H](CCCCN)NC(=O)[C@H](CC(C)C)NC(=O)[C@H](CCCCNC(=O)[C@H](CC(C)C)NC(=O)[C@H](CCCCN)NC(=O)[C@H](CCCCNC(=O)[C@H](CC(C)C)NC(=O)[C@@H](N)CCCCN)NC(=O)[C@H](CC(C)C)NC(=O)[C@@H](N)CCCCN)NC(=O)[C@H](CC(C)C)NC(=O)[C@H](CCCCN)NC(=O)[C@H](CCCCNC(=O)[C@H](CC(C)C)NC(=O)[C@@H](N)CCCCN)NC(=O)[C@H](CC(C)C)NC(=O)[C@@H](N)CCCCN)C(N)=O [YGO-008, (KL)8(KKL)4(KLKL)2(KKKL)] (I: H-KLK([Leu-Lys])KLKLKLKKKL-NH2 / II: H-KLK([Leu-Lys])KLKLKL / III: H-KLK([Leu-Lys])KL / IV: H-KLK([Leu-Lys])KL; amide I:6-IV:C, I:10-II:C, II:6-III:C)
5 (≈ 2.64 µM)	CC(C)C[C@H](NC(=O)[C@H](CCN)NC(=O)[C@H](CCCCNC(=O)[C@H](CC(C)C)NC(=O)[C@H](CCN)NC(=O)[C@H](CCCCNC(=O)[C@H](CC(C)C)NC(=O)[C@@H](N)CCN)NC(=O)[C@H](CC(C)C)NC(=O)[C@@H](N)CCN)NC(=O)[C@H](CC(C)C)NC(=O)[C@H](CCN)NC(=O)[C@H](CCCCNC(=O)[C@H](CC(C)C)NC(=O)[C@@H](N)CCN)NC(=O)[C@H](CC(C)C)NC(=O)[C@@H](N)CCN)C(N)=O [MSt-201, (DabL)4(KDabL)2(KDabL)] (I: H-[Dab]LK([Leu-Dab])[Dab]LK[Dab]L-NH2 / II: H-[Dab]LK([Leu-Dab])[Dab]L; amide I:6-II:C; N-terminus assumed)
5 (≈ 2.37 µM)	CC(C)C[C@H](NC(=O)[C@H](CCCNC(=N)N)NC(=O)[C@H](CCCCNC(=O)[C@H](CC(C)C)NC(=O)[C@@H](N)CCCNC(=N)N)NC(=O)[C@H](CC(C)C)NC(=O)[C@@H](N)CCCNC(=N)N)C(=O)N[C@@H](CSSC[C@H](NC(=O)[C@H](CC(C)C)NC(=O)[C@H](CCCNC(=N)N)NC(=O)[C@H](CCCCNC(=O)[C@H](CC(C)C)NC(=O)[C@@H](N)CCCNC(=N)N)NC(=O)[C@H](CC(C)C)NC(=O)[C@@H](N)CCCNC(=N)N)C(N)=O)C(N)=O [CCS-19 dimer, ((RL)2KRLC)2] (I: H-RLK([Leu-Arg])RLC-NH2 / II: H-RLK([Leu-Arg])RLC-NH2; disulfide I:6-II:6; N-terminus assumed)
2 (≈ 1.02 µM)	CC(C)C[C@H](NC(=O)[C@H](CCCCN)NC(=O)[C@H](CNC(=O)[C@H](CC(C)C)NC(=O)[C@H](CCCCN)NC(=O)[C@H](CNC(=O)[C@H](CC(C)C)NC(=O)[C@@H](N)CCCCN)NC(=O)[C@H](CC(C)C)NC(=O)[C@@H](N)CCCCN)NC(=O)[C@H](CC(C)C)NC(=O)[C@H](CCCCN)NC(=O)[C@H](CNC(=O)[C@H](CC(C)C)NC(=O)[C@@H](N)CCCCN)NC(=O)[C@H](CC(C)C)NC(=O)[C@@H](N)CCCCN)C(N)=O [MSt-138, (KL)4(BKL)2(BKL)] (I: H-KL[Dap]([Leu-Lys])KL[Dap]KL-NH2 / II: H-KL[Dap]([Leu-Lys])KL; amide I:6-II:C)
